# Where “and” joins values, the source holds several entries; their conditions need not be identical. Equal values may be shown once. Read-outs that look alike come from different tables or passages of the source.
# Key:
# human DAT = human DAT (Homo sapiens, UniProt Q01959); experiment: Fluorescence-based neurotransmitter uptake assay, HEK-hDAT cells; format: cell-based
# DAT [1] = system: DAT; design: method as in PMID 10997723; conditions: effect of isethionate on mazindol binding; cited from earlier work
# DAT [2] = conditions: cited from earlier work
# NET = conditions: cited from earlier work
# SERT = conditions: cited from earlier work
# [3] = DAT inhibition by monovalent ions
# [4] = read-out: Literature IC50, substrate uptake assay, ref M.J. Hansard, et al., J Pharmacol Exp Ther 303 (2002) 952-958
# [5] = read-out: Literature IC50, substrate uptake assay, ref A.J. Eshleman, et al., J Pharmacol Exp Ther 289 (1999) 877-885
# Sequence of human DAT (Q01959 whole entry): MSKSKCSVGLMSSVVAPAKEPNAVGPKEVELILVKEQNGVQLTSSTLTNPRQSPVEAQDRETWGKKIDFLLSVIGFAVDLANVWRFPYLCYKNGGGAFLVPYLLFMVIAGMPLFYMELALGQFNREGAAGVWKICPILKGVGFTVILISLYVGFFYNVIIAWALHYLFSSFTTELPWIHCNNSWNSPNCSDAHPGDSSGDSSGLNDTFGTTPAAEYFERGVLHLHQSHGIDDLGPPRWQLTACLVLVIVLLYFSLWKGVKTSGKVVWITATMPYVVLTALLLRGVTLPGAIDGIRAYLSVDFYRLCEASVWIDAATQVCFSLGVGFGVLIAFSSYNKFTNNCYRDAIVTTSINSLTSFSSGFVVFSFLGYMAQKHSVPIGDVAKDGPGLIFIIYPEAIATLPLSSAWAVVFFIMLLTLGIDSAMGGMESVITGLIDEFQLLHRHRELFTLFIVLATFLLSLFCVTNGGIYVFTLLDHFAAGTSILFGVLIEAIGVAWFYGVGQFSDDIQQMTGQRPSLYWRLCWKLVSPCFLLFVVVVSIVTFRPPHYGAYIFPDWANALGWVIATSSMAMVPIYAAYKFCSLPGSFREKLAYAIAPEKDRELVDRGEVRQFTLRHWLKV
smiles,measurement,setting,value
O=S(=O)(O)CCO [Isethionate],Hill coefficient (h),human DAT; [3],0.8 ± 0.2
same,IC50,human DAT; [3],3300 ± 600 µM
same,"reduction of the binding of a DAT inhibitor, mazindol",DAT [1],more than 50%
C[N+](C)(C)CCO [Choline],Hill coefficient (h),human DAT,1.4 ± 0.2
same,IC50,human DAT; [3],37000 µM and 36600 µM
O=C(O)[C@H](O)[C@@H](O)[C@H](O)[C@H](O)CO [Gluconate],Hill coefficient (h),human DAT; [3],1.2 ± 0.3
same,IC50,human DAT; [3],1400 ± 200 µM
Fc1ccc(C(OCCN2CCN(CCCc3ccccc3)CC2)c2ccc(F)cc2)cc1 [Vanoxerine],IC50,DAT [2]; [4],[…]
CNCCC(Oc1ccccc1OC)c1ccccc1 (stereo not drawn) [Nisoxetine],IC50,DAT [2]; [5],[…]
same,IC50,NET; [5],0.0053 µM
CNC[C@H](O)[C@H](O)[C@H](O)[C@H](O)CO [NMDG],Hill coefficient (h),human DAT; [3],11 and 10.6 ± 3.8
same,IC50,human DAT; [3],3700 ± 200 µM
